Experimental data taken from patent US4152519A, “16-Hydroxy aspidospermidines and a process for their production” (Parcor, priority 1976, dated 1979).

Legend:
[1] = tested on: low-pressure hypoxia; assay: mortality caused by low-pressure hypoxia in the mouse; format: in vivo, mouse (NMRI-Han); set-up: survival time, average and standard deviation: unit not given here
Procedure: An artificial altitude was created by placing the mouse in a sealed box and progressively reducing the pressure to 190 mm of mercury (equivalent to about 10,000 meters altitude) using a CEM-type pump, so that the desired altitude is obtained in 1 minute 10 seconds on average. A stopwatch is then started and the exact time when the chest movements cease is noted. Any mouse whose survival time is more than twice the average value noted in the corresponding "solvent control" series is regarded as protected.
The ED50 was calculated from the percentage of "protected" mice using the graphical method indicated by LITCHFIELD and WILCOXON (J. Pharm. Exp. Ther., 1949, 96, 99-113).
The compound was administered by intraperitoneal route 20 minutes before the altitude is artifically created; whatever the dose, the volume injected was always equal to 20 ml/kg.
The effects were also examined after administration by oesophageal tube 60 minutes before the test, whilst the volume administered is always 20 ml/kg.
The entire study was carried out on adult male EOPS mice (4 to 5 weeks old) of the NMRI-Han strain, divided into random test groups after being fed only water for 18 hours.

[2] = tested on: cortical electrogenesis disrupted by the presence of a unilateral cerebral oedema; assay: effect on cortical electrogenesis disrupted by unilateral cerebral oedema in the unanaesthetised rabbit; format: in vivo
Procedure: 48 hours before use, the animal's cranium is exposed and stainless steel electrodes are screwed on so as to contact the dura mater on the frontal and occipital lobes on both sides of the median and transverse sutures. The electrocorticogram is recorded on a REEGA MINI HUIT TR electroencephalograph mounted transversely and longitudinally, whilst a 4th channel serves to record the electrocardiogram. Moreover, a flap of bone 7 to 10 mm in diameter was removed on one side, and this operation was not found, 48 hours later, to have caused any appreciable disruption of the electrical activity of the cortex.
An oedema was then produced by removing the dura mater and arachnoid; it usually takes the form of a hernia of the cortex. The treatment is then given and the electrocorticographic trace is monitored every hour during and after administration of the test products, then 24 and 48 hours later.
The action of the test products is assessed on the basic electrogenesis, particularly on the presence of slow waves and on the signs of cortical reactivity to two exteroceptive stimuli: a receptive stimulus (electrical tone lasting 2 seconds) and a nociceptive stimulation of the nerve endings in the skin by pinching the dorsal skin using KOCHER forceps.
The compounds are administered by either intravenous or intragastric route.

[3] = tested on: "spatial disorientation" syndrome; assay: effect on a "spatial disorientation" syndrome in the rat (aquatic labyrinth after electric shock); format: in vivo, rat (Wistar AF-Han)
Procedure: This study was carried out using male rats of the Wistar AF-Han EOPS strains weighing about 160 g and about 6 to 7 weeks old.
After being guided through once by the experimenter, the rats are first of all subjected to 4 tests in 2 days in an aquatic labyrinth described by GIURGEA and MOURAVIEFFLESUISSE (J. Pharmacol. PARIS, 1972, 3, 1, 17-30).
On the 3rd day, the rats are subjected to a supramaximal electric shock delivered by a Neurovac controlled by a CRC OC 342 oscillograph; the electric shock has the following characteristics: 100 Hz, 0.5 ms, 1 second, 60 volts.
After passing through the labyrinth 20 minutes after the electric shock, the rats are given their treatment by oesophageal tube. Two tests are carried out 40 and 100 minutes after treatment, i.e. 60 and 120 minutes after the electric shock, and the time taken to pass through the labyrinth by each animal is timed; the number of errors is also noted.
The rats are put on a diet of water for 18 hours after passing through for the 4th time. The compound is administered by intragastric route in a volume of 5 ml/kg.
time taken to leave the aquatic labyrinth;
average number of errors made in an effort to leave the labyrinth;
percentage of "normal" subjects, i.e. rats passing through the labyrinth with only 0-4 errors.

[4] = acute toxicity in the mouse (LD50, SPEARMAN-KARBER method); details: in vivo
Procedure: (§1) The results of the study of the acute toxicity were as follows, the tests having been carried out on the mouse and rat, whilst the product was administered intravenously, subcutaneously and by oesophageal tube. The doses studied were administered in a volume of 1 ml/100 g of body weight, whilst each dose was administered to 5 males and 5 females; the LD 50 was investigated using the SPEARMAN-KARBER method.

[5] = in vivo
Source text: 2. the chronic toxicity (rats and dogs),
4. the local and general tolerance,
5. the possible teratogenic effects, […]

[6] = acute toxicity in the rat (LD50, SPEARMAN-KARBER method); details: in vivo
Procedure: as §1

[7] = stability in acidic medium; format: physicochemical
[8] = 50 mg/kg group, 20 minutes after electric shock (before treatment)
[9] = 50 mg/kg group, before electric shock (before treatment)
[10] = 50 mg/kg intragastric, 60 minutes after electric shock (40 minutes after treatment)
[11] = 50 mg/kg intragastric, 120 minutes after electric shock (100 minutes after treatment)
[12] = 100 mg/kg group, 20 minutes after electric shock (before treatment)
[13] = 100 mg/kg group, before electric shock (before treatment)
[14] = 100 mg/kg intragastric, 60 minutes after electric shock (40 minutes after treatment)
[15] = 100 mg/kg intragastric, 120 minutes after electric shock (100 minutes after treatment)

CCC12CCCN3CCC4(C(=Nc5ccccc54)C(O)(C(=O)OC)C1)C32 (single isomer, unassigned) [the compound]
survival time, average and standard deviation ([1]; 2.5 mg/kg i.p., 20 minutes before altitude): 88.4 ± 7.01 | survival time, average and standard deviation ([1]; 5.0 mg/kg i.p., 20 minutes before altitude): 108.5 ± 20.22 | survival time, average and standard deviation ([1]; 10.0 mg/kg i.p., 20 minutes before altitude): 155.7 ± 30.42 | survival time, average and standard deviation ([1]; 15 mg/kg i.p., 20 minutes before altitude): 179.6 ± 32.07 | survival time, average and standard deviation ([1]; 20 mg/kg i.p., 20 minutes before altitude): 275.4 ± 39.77 | survival time, average and standard deviation ([1]; 30 mg/kg i.p., 20 minutes before altitude): 308.5 ± 35.65 | survival time, average and standard deviation ([1]; 50 mg/kg p.o., 60 minutes before test): 122.6 ± 11.75 | survival time, average and standard deviation ([1]; 100 mg/kg p.o., 60 minutes before test): 186.8 ± 25.70 | survival time, average and standard deviation ([1]; 150 mg/kg p.o., 60 minutes before test): 179.7 ± 20.23 | survival time, average and standard deviation ([1]; 200 mg/kg p.o., 60 minutes before test): 287.0 ± 25.58 | survival time, average and standard deviation ([1]; 250 mg/kg p.o., 60 minutes before test): 306.5 ± 29.46 | survival time, average and standard deviation ([1]; 300 mg/kg p.o., 60 minutes before test): 281.6 ± 30.61 | protection from the toxic effects of artificial altitude ([1]; regardless of the route of administration): makes it possible to protect the mouse from the toxic effects of artificial altitude | effect on the development of electrogenesis in the cortex disrupted by unilateral cerebral oedema ([2]; conclusion, unanaesthetised rabbit): beneficial effect | increase of the value of the "R" index ([2]; intragastric, 5 mg/kg): ~30% | value of the "R" index ([2]; intragastric, 10 mg/kg, during the 8 hours following ingestion): a clear improvement in the value of the "R" index | activity with regard to oedema symptoms (spontaneous electrogenesis and duration of alert reactions) ([2]; intravenous, 0.5 mg, 1 mg and 2 mg/kg): has a therapeutic acitivity with regard to oedema symptoms | average number of errors [3, 8]: 23.4 | average time taken to leave the aquatic labyrinth [3, 8]: 186 s | percentage of "normal" subjects (0-4 errors) [3, 8]: 0 percentage | average number of errors [3, 9]: 3.4 | average time taken to leave the aquatic labyrinth [3, 9]: 39 s | percentage of "normal" subjects (0-4 errors) [3, 9]: 80 percentage | average number of errors [3, 10]: 15.2 | average time taken to leave the aquatic labyrinth [3, 10]: 96 s | percentage of "normal" subjects (0-4 errors) [3, 10]: 28 percentage | average number of errors [3, 11]: 8.9 | average time taken to leave the aquatic labyrinth [3, 11]: 68 s | percentage of "normal" subjects (0-4 errors) [3, 11]: 52 percentage | average number of errors [3, 12]: 22.6 | average time taken to leave the aquatic labyrinth [3, 12]: 168 s | percentage of "normal" subjects (0-4 errors) [3, 12]: 0 percentage | average number of errors [3, 13]: 3.4 | average time taken to leave the aquatic labyrinth [3, 13]: 37 s | percentage of "normal" subjects (0-4 errors) [3, 13]: 77 percentage | average number of errors [3, 14]: 13.9 | average time taken to leave the aquatic labyrinth [3, 14]: 103 s | percentage of "normal" subjects (0-4 errors) [3, 14]: 17 percentage | average number of errors [3, 15]: 8.9 | average time taken to leave the aquatic labyrinth [3, 15]: 80 s | percentage of "normal" subjects (0-4 errors) [3, 15]: 47 percentage | recovery of memory ([3]; oral route, conclusion): accelerates the recovery of memory already instilled | LD50 at 72 h ([4]; iv): 86 mg/kg | LD50 at 72 h ([4]; po): 860 mg/kg | LD50 at 72 h ([4]; sc): 176 mg/kg | tolerance [5]: tolerated well both orally and by parenteral or intramuscular route, without causing local or general reactions | LD50 at 72 h ([6]; iv): 63.4 mg/kg | LD50 at 72 h ([6]; po): 777 mg/kg | LD50 at 72 h ([6]; sc): 126 mg/kg | stability in an acidic medium [7]: unstable in an acidic medium
